Data reported in patent US7935722B2 (Eli Lilly and Company, priority 2005, dated 2011).
Several values for one entry are separate records, joined by “and”; a condition that tells them apart may be missing. Equal values may be shown once. Read-outs that look alike come from different tables or passages of the source.

How the values were obtained:
[1] = target: T1, human androgen receptor (AR) (Homo sapiens, UniProt P10275); assay: C2C12 AR/ARE reporter assay; format: cell-based
T1 construct: expressed in transfected cells; host or cells: mouse myoblast C2C12 cells, transiently co-transfected
T1 sequence (P10275 1-920): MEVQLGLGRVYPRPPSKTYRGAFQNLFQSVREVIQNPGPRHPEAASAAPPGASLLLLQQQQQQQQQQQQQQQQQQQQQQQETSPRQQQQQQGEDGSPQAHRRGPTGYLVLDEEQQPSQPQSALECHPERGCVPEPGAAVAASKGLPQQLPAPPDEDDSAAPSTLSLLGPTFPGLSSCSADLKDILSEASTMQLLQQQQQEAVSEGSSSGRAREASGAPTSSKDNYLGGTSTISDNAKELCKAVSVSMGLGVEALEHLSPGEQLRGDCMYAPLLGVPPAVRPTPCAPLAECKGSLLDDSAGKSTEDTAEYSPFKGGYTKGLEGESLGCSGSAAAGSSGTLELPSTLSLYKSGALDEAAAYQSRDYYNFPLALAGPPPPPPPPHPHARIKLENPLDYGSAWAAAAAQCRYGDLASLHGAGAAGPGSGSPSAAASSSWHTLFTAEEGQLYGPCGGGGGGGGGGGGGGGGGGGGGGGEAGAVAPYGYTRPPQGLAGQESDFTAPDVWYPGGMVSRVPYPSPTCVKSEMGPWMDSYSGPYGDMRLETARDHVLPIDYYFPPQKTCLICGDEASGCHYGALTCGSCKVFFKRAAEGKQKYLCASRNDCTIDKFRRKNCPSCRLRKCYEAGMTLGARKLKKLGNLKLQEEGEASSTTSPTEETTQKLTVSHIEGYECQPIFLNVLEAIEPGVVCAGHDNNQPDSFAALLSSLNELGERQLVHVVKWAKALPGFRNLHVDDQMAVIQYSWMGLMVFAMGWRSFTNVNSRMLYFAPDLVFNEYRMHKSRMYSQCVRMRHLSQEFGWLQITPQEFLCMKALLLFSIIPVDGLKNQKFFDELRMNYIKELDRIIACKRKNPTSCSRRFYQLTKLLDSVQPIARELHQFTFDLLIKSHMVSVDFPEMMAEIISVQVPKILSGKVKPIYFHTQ
Outline: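 Mouse C2C12 myoblasts co-transfected with AR/ARE reporter were plated in charcoal-stripped serum and treated for 48 h with compound from about 0.01 nM to 10 μM. Luciferase activity gave EC50 by 4-parameter logistic fit. Efficacy is expressed as % of maximal stimulation by 10 nM methyltrienolone.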

[2] = target: T2, human AR (androgen receptor) (Homo sapiens, UniProt P10275); assay: Steroid hormone nuclear receptor binding assay, AR binding
T2 construct: expressed in transfected cells; host or cells: 293 cells (293-AR lysate)
T2 sequence (P10275 1-920): T1 sequence (P10275 1-920)
Outline: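 Competition binding with lysates of 293 cells overexpressing human AR, [3H]-methyltrienolone tracer, compounds from about 0.01 nM to 10 μM, overnight at 4 °C; non-specific binding set with 500 nM methyltrienolone. Bound tracer counted by scintillation after charcoal-dextran separation; IC50 converted to Ki by Cheng-Prusoff using Kd from saturation binding.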

[3] = C2C12, read-out: C2C12 % Efficacy
[4] = C2C12 AR/ARE reporter assay, average of n trials, read-out: C2C12 % Efficacy
[5] = C2C12 AR/ARE reporter assay, average of n trials, read-out: C2C12 EC50
[6] = average of n trials, read-out: AR binding Ki

With `CC(C)C(=O)NC1CCc2c(c3cc(C#N)ccc3n2Cc2ccccc2OC(F)(F)F)C1` (stereo not shown) [Example 100, N-[6-Cyano-9-(2-trifluoromethoxy-benzyl)-2,3,4,9-tetrahydro-1H-carbazol-3-yl]-isobutyramide] the melting point was 224 to 225 °C, the EC50 [1] was 126 nM and the Emax [1, 3] was 87.6%. For the same molecule, the Ki [2] was 8 nM.

Molecule `CC(C)C(=O)NC1CCc2c(c3cc(S(C)(=O)=O)ccc3n2Cc2cccc(F)c2)C1` (stereo not shown) [Example 53] has a melting point of 205 to 207 °C, an EC50 [1] of 24.3 nM and an Emax [1, 3] of 107%. It also gave a Ki [2] of 21.6 nM.

For `CC(C)C(=O)NC1CCc2c(c3cc(Cl)ccc3n2Cc2ccccc2F)C1` (stereo not shown) [Example 17], the melting point was 190 to 193 °C, the EC50 [1] was 148 nM and the Emax [1, 3] was 62.1%. For the same molecule, the Ki [2] was 8.6 nM.

`CC(C)C(=O)NC1CCc2c(c3cc(Br)ccc3n2Cc2ccccc2F)C1` (stereo not shown) [Example 31] showed a melting point of 194 to 197 °C, an EC50 [1] of 58.7 nM and an Emax [1, 3] of 70.8%. The Ki [2] was 5.3 nM.

With `CC(C)C(=O)NC1CCc2c(c3cc(F)ccc3n2Cc2cccc(C#N)c2)C1` (stereo not shown) [Example 11] the melting point was 184 to 186 °C, the EC50 [1] was 2180 nM and the Emax [1, 3] was 36.3%. The Ki [2] was 61.5 nM.

With `N#Cc1ccc2c(c1)c1c(n2Cc2cccc(F)c2)CCC(NC(=O)C2CC2)C1` (stereo not shown) [Example 193, Cyclopropanecarboxylic acid[6-cyano-9-(3-fluorobenzyl)-2,3,4,9-tetrahydro-1H-carbazol-3-yl]amide] the melting point was 208 to 210 °C and 207 to 209 °C, the EC50 [1] was 7.9 nM and the Emax [1, 3] was 92.7%. The Ki [2] was 4.3 nM.

In the case of `CC(C)C(=O)NC1CCc2c(c3cc4c(cc3n2Cc2cccc(F)c2)OCO4)C1` (stereo not shown) [Example 98, N-[9-(3-Fluoro-benzyl)-6,7,8,9-tetrahydro-5H-1,3-dioxa-9-aza-cyclopenta[b]fluoren-6-yl]-isobutyramide], the melting point is reported as 250 to 255 °C, the EC50 [1] is reported as 40.8 nM and the Emax [1, 3] is reported as 104%. It also gave a Ki [2] of 7 nM.

Molecule `CO/N=C/c1ccc2c(c1)c1c(n2Cc2cccc(F)c2)CC[C@@H](NC(=O)C2CC2)C1` [Example 205, (R)-Cyclopropanecarboxylic acid[9-(3-fluoro-benzyl)-6-(1-methoxyimino-methyl)-2,3,4,9-tetrahydro-1H-carbazol-3-yl]-amide] has a melting point of 200 to 203 °C, an EC50 [1] of 0.5 nM and an Emax [1, 3] of 88.4%. It also gave a Ki [2] of 3 nM.

In the case of `N#Cc1ccc2c(c1)c1c(n2Cc2cccc(F)n2)CC[C@@H](NC(=O)C2CC2)C1` [Example 195, Cyclopropanecarboxylic acid[6-cyano-9-(6-fluoro-pyridin-2-ylmethyl)-2,3,4,9-tetrahydro-1H-carbazol-3-yl]-amide], the melting point is reported as 243 to 245 °C, the EC50 [1] is reported as 2.7 nM and the Emax [1, 3] is reported as 96.5%. It also gave a Ki [2] of 4.3 nM.

Work on `CC(C)C(=O)NC1CCc2c(c3cc(F)ccc3n2Cc2cccc(Cl)c2)C1` (stereo not shown) [Example 9] yielded a melting point of 177 to 179 °C, an EC50 [1] of 113 nM and an Emax [1, 3] of 62.3%. The Ki [2] was 7.2 nM.

For `CC(C)C(=O)NC1CCc2c(c3cc(F)ccc3n2Cc2ccc(C#N)cc2)C1` (stereo not shown) [Example 14], the melting point was 181 to 184 °C, the EC50 [1] was 927 nM and the Emax [1, 3] was 36.4%. The Ki [2] was 81.4 nM.

Work on `CC(C)C(=O)NC1CCc2c(c3cc(F)ccc3n2Cc2ccccc2Cl)C1` (stereo not shown) [Example 5] yielded a melting point of 155 to 157 °C, an Emax [1, 3] of 80.3% and a Ki [2] of 24.6 nM.

`CC(C)C(=O)NC1CCc2c(c3cc(Br)ccc3n2Cc2ccc(F)cc2)C1` (stereo not shown) [Example 39] showed a melting point of 165 to 170 °C, an EC50 [1] of 28.9 nM and an Emax [1, 3] of 76.1%. For the same molecule, the Ki [2] was 5.3 nM.

Molecule `CC(C)C(=O)NC1CCc2c(c3cc(Cl)ccc3n2Cc2cccc(Cl)c2)C1` (stereo not shown) [Example 22] has a melting point of 187 to 189 °C, an EC50 [1] of 75.7 nM and an Emax [1, 3] of 74.7%. For the same molecule, the Ki [2] was 3.5 nM.

`CO/N=C/c1ccc2c(c1)c1c(n2Cc2ccccn2)CC[C@@H](NC(=O)C2CC2)C1` [Example 208, (R)-Cyclopropanecarboxylic acid[6-(1-methoxyimino-methyl)-9-pyridin-2-ylmethyl-2,3,4,9-tetrahydro-1H-carbazol-3-yl]-amide] showed a melting point of 215 to 217 °C, an EC50 [1] of 3.8 nM and an Emax [1, 3] of 96.3%. The Ki [2] was 21.1 nM.

`Cc1cccc2c3c(n(Cc4cccc(F)c4)c12)CCC(NC(=O)C(C)C)C3` (stereo not shown) [Example 60] gave a melting point of 188 to 191 °C, an EC50 [1] of 299 nM and an Emax [1, 3] of 74.2%. The Ki [2] was 35.9 nM.

`COc1ccccc1Cn1c2c(c3cc(Cl)ccc31)CC(NC(=O)C(C)C)CC2` (stereo not shown) [Example 19, N-[6-chloro-9-(2-methoxy-benzyl)-2,3,4,9-tetrahydro-1H-carbazol-3-yl]-isobutyramide] gave a melting point of 141 to 149 °C, an EC50 [1] of 245 nM and an Emax [1, 3] of 63.2%. It also gave a Ki [2] of 37.8 nM.

For `CC(C)C(=O)NC1CCc2c(c3cc(-c4nccs4)ccc3n2Cc2cccc(F)c2)C1` (stereo not shown) [Example 130, N-[9-(3-Fluorobenzyl)-6-thiazol-2-yl-2,3,4,9-tetrahydro-1H-carbazol-3-yl]isobutyramide], the melting point was 221 to 225 °C, the EC50 [1] was 5 nM and the Emax [1, 3] was 85.6%. For the same molecule, the Ki [2] was 13.6 nM.

Work on `Cc1ccc2c(c1)c1c(n2Cc2ccccc2F)CCC(NC(=O)C(C)C)C1` (stereo not shown) [Example 43] yielded a melting point of 174 to 176 °C, an EC50 [1] of 462 nM and an Emax [1, 3] of 69.6%. It also gave a Ki [2] of 104 nM.

`COc1ccc2c(c1)c1c(n2Cc2ccccc2)CCC(NC(C)=O)C1` (stereo not shown) [Example 65, N-(9-Benzyl-6-methoxy-2,3-4,9-tetrahydro-1H-carbazol-3-yl)-acetamide] gave a melting point of 184 to 185 °C, an Emax [1, 4] of 87.3% and an EC50 [1, 5] of 40.5 nM. It also gave a Ki [2, 6] of 58.4 nM.

In the case of `CC(C)C(=O)NC1CCc2c(c3cc(F)ccc3n2Cc2ccc(Cl)cc2)C1` (stereo not shown) [Example 13], the melting point is reported as 188 to 190 °C, the EC50 [1] is reported as 1030 nM and the Emax [1, 3] is reported as 55.5%. It also gave a Ki [2] of 33.5 nM.

In the case of `COc1ccc(Cn2c3c(c4cc(Br)ccc42)CC(NC(=O)C(C)C)CC3)cc1` (stereo not shown) [Example 41], the melting point is reported as 120 to 125 °C, the EC50 [1] is reported as 1820 nM and the Emax [1, 3] is reported as 46.6%. It also gave a Ki [2] of 43.2 nM.

Work on `COc1ccccc1Cn1c2c(c3cc(F)ccc31)CC(NC(=O)C(C)C)CC2` (stereo not shown) [Example 6] yielded a melting point of 196 to 198 °C, an EC50 [1] of 1770 nM and an Emax [1, 3] of 49.7%. For the same molecule, the Ki [2] was 156 nM.

Work on `CO/N=C/c1ccc2c(c1)c1c(n2Cc2cccc(F)c2)CCC(NC(=O)C(C)C)C1` (stereo not shown) [Example 199, N-[9-(3-Fluoro-benzyl)-6-(methoxyimino-methyl)-2,3,4,9-tetrahydro-1H-carbazol-3-yl]-isobutyramide] yielded a melting point of 180 to 182 °C, an Emax [1, 4] of 83.6% and an EC50 [1, 5] of 1.8 nM. The Ki [2, 6] was 6.6 nM.

`CCOC(=O)Nc1ccc2c(c1)c1c(n2Cc2cccc(F)c2)CC[C@@H](NC(=O)C(C)C)C1` [Example 189, (R)-[9-(3-Fluoro-benzyl)-6-isobutyrylamino-6,7,8,9-tetrahydro-5H-carbazol-3-yl]-carbamic acid ethyl ester] gave a melting point of 169 to 171 °C, an Emax [1, 4] of 52.9% and an EC50 [1, 5] of 1.2 nM. The Ki [2, 6] was 8.3 nM.

Molecule `Cc1ccc2c(c1)c1c(n2Cc2cccc(Cl)c2)CCC(NC(=O)C(C)C)C1` (stereo not shown) [Example 48] has a melting point of 190 to 192 °C, an EC50 [1] of 116 nM and an Emax [1, 3] of 69.5%. For the same molecule, the Ki [2] was 9.4 nM.

Molecule `CC(C)C(=O)NC1CCc2c(c3cc(Br)ccc3n2Cc2ccccc2C#N)C1` (stereo not shown) [Example 33] has a melting point of 240 to 241.5 °C, an EC50 [1] of 433 nM and an Emax [1, 3] of 87.3%. The Ki [2] was 13 nM.

With `COc1cccc(Cn2c3c(c4cc(Br)ccc42)CC(NC(=O)C(C)C)CC3)c1` (stereo not shown) [Example 37] the melting point was 176 to 180 °C, the EC50 [1] was 109 nM and the Emax [1, 3] was 95.5%. For the same molecule, the Ki [2] was 9.1 nM.

In the case of `CC(C)C(=O)NC1CCc2c(c3ccccc3n2Cc2ccccc2)C1` (stereo not shown) [Example 2], the melting point is reported as 191 to 193 °C, the EC50 [1] is reported as 313 nM and the Emax [1, 3] is reported as 59.4%. For the same molecule, the Ki [2] was 17.7 nM.

`Cc1ccc2c(c1)c1c(n2Cc2ccccc2C#N)CCC(NC(=O)C(C)C)C1` (stereo not shown) [Example 46] showed a melting point of 218 to 220 °C, an Emax [1, 3] of 40.5% and a Ki [2] of 137 nM.
